Experimental data published in paper PMC11497070 (Chemical Communications (Cambridge, England), 2024).
Non-standard residues stand in square brackets, D forms with d. Residues, ends and D or L forms follow the SMILES beside them. *: point of attachment. Ala(7-MeO-coumarin-4-yl) = COc1ccc2c(C[C@H](N)C(=O)O)cc(=O)oc2c1; X1 = N[C@@H](Cc1ccc(O)cc1)C(=S)N1CCC[C@H]1C(=O)*

Columns and labels:
[1] = molecular target: T1, DPP-4 (Homo sapiens, UniProt P27487); assay: DPP-4 proteolysis steady state fluorescence assay with μ-tagged probes; assay type: in vitro ADME; details: 5 μM peptide, 2.31 ng/μL DPP-4, DPBS pH 7.6, 27 °C, fluorescence λex 325 nm / λem 390 nm; for cleaved fold slower than the native NPY1–5 probe Y^SPSKPμ: three replicates
T1 construct: purchased Sigma Aldrich D3446
T1 sequence (P27487 whole entry): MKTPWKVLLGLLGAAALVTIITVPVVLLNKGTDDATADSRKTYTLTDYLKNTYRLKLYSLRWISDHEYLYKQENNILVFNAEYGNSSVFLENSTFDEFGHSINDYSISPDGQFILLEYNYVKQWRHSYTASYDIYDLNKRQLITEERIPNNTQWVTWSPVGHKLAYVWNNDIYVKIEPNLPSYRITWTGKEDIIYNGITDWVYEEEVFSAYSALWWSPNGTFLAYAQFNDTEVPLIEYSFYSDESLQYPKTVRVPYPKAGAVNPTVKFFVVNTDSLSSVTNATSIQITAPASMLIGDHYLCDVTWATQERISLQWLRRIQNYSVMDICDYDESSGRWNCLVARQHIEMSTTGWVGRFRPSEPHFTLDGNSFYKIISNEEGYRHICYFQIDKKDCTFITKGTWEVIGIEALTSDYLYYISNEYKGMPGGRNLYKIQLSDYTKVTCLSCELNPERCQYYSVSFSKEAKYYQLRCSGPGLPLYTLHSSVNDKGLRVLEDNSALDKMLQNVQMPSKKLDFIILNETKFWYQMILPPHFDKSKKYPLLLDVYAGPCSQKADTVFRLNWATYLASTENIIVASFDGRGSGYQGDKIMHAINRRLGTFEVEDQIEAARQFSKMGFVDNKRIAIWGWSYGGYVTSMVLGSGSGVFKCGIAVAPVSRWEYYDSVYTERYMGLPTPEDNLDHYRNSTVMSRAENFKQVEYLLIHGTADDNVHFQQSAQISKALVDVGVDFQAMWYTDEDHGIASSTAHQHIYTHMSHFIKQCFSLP
Description: Phan et al. Supporting Information
4. DPP-4 Proteolysis Assays (Steady State Assays)
A 19 μL solution of 5.3 μM peptide was incubated in the absence or presence of 1 μL of 46.2 ng/μL DPP-4 (Sigma Aldrich, D3446), to final concentrations of 5 μM peptide and 2.31 ng/μL […]
For the PP-based probes (APLEPμ & ASPLEPμ), […]
additional assays were conducted at higher DPP-4 concentration of 4.62 ng/μL to improve the cleavage rate and kinetics of the thioamide probes (Figure S17B). For the μ-tagged probes, the […]
nm on the Tecan M1000 plate reader. Three replicates were performed for each assay to ensure reproducibility. These primary data are shown. At the end of the plate-reader assay, the sample was diluted to a final volume of 170 μL for validation with HPLC. MALDI MS & HPLC analysis of peptide proteolysis by DPP-4 were also done to confirm the cleavage sites, indicated by the slashes (e.g. YP/SKPµ) as summarized in Figures S14-S17, and Tables S4-S7. A Phenomenex Luna® Omega 5 µm PS C18 100 Å analytical HPLC column was used to analyze all samples using the same gradient of 20-25 % B over 35 minutes (Solvent A: 0.1% TFA in Milli-Q water; Solvent B: 0.1% TFA in acetonitrile).

[2] = tested on: DPP-4 (dipeptidyl Peptidase IV human, recombinant, expressed in Sf9 cells); assay: 2.31 ng/μL DPP-4 in DPBS buffer and pH 7.6 (PP-based probes also 4.62 ng/μL); details: 27°C, up to 400 min

Molecule	cleaved bond [2]	further results
CC[C@H](C)[C@H](NC(=O)[C@@H]1CCCN1C(=S)[C@@H](N)Cc1ccc(O)cc1)C(=O)N[C@@H](CCCCN)C(=O)N1CCC[C@H]1C(=O)N[C@@H](Cc1cc(=O)oc2cc(OC)ccc12)C(=O)O [Y^SPIKPμ] (X1-IKP[Ala(7-MeO-coumarin-4-yl)]-OH)	–	cleaved fold slower than the native NPY1–5 probe Y^SPSKPμ [1]: 3 fold
COc1ccc2c(C[C@H](NC(=O)[C@@H]3CCCN3C(=O)[C@H](CCCCN)NC(=O)[C@H](CC(C)C)NC(=O)[C@@H]3CCCN3C(=S)[C@@H](N)Cc3ccc(O)cc3)C(=O)O)cc(=O)oc2c1 [Y^SPLKPμ] (X1-LKP[Ala(7-MeO-coumarin-4-yl)]-OH)	–	cleaved fold slower than the native NPY1–5 probe Y^SPSKPμ [1]: 2 fold
COc1ccc2c(C[C@H](NC(=O)[C@@H]3CCCN3C(=O)[C@H](CCCCN)NC(=O)[C@H](CO)NC(=O)[C@@H]3CCCN3C(=S)[C@@H](N)Cc3ccc(O)cc3)C(=O)O)cc(=O)oc2c1 [Y^sPSKPμ] (X1-SKP[Ala(7-MeO-coumarin-4-yl)]-OH)	–	t1/2 of cleavage by DPP-4 (μ-labeled probe) ([1]; average of three replicates): 26 min
A^SPLEPμ	P-L	–
YPIKPμ	P-I	–
YPLKPμ	P-L3	–
Y^SPIKPμ	P-I	–
Y^SPLKPμ	P-L3	–

Further lines, with some results ahead:

cleaved bond [2]	Molecule	further results
P-L	APLEPμ	–
P-S	YPSKPμ	–
P-S	Y^SPSKPμ	–
